Strand notation (5' to 3'): a small letter for the sugar, then the base; units joined by * are phosphorothioate-linked, units joined directly phosphodiester-linked; [ ] holds rarer units or linkages, { } end groups; capitals alone tell only the bases. e = 2'-O-(2-methoxyethyl) (MOE); [5mC] = 5-methylcytosine; d = 2'-deoxy (DNA)
Key:
[1] = Bioavailability of antisense oligonucleotide after intra-jejunal dosing through a catheter, plasma level by anion-exchange chromatography (Example 3); format: in vivo, male rhesus monkeys; settings: rhesus monkey, po
Excerpt: The compositions were compared by administering them in solution form through a catheter to test subjects. A jejunal catheter is surgically implanted in six male rhesus monkeys (3-5 years, 3-5 Kg) under anesthesia. The catheters are attached to a subcutaneous access port to allow dosing through the port into the jejunum. The animals are allowed to recover at least 7 days prior to dosing. […] The antisense oligonucleotide is detected by anion-exchange chromatography. The formulations and the measurements of bioavailability, Tmax and plasma peak of antisense oligonucleotide after administration of formulations are described in the chart below.

[2] = Solubility of the enhancer system in phosphate buffer saline

Solubility in phosphate buffer saline [2]	Molecule	permeability without any permeation enhancer systems [1]
	antisense oligonucleotide: 5-10-5 MOE gapmer phosphorothioate, 5-methylcytosines, targets human TNF-α; GCTGATTAGAGAGAGGTCCC (antisense eG*e[5mC]*eT*eG*eA*dT*dT*dA*dG*dA*dG*dA*dG*dA*dG*eG*eT*e[5mC]*e[5mC]*e[5mC])	poor permeability
not fully soluble	CCCCCCCCCCC(CCCCCCCC)C(=O)[O-].[Na+] (centres unmarked) [sodium 2-n-octyl-dodecanoate]	

Source: patent publication US7820722B2, “Permeation enhancers” (Merrion Research III Limited, priority 2001, dated 2010)
